Source: paper PMC8780828 (Viruses, 2021)

What was measured:
[1] = tested on: NL4-3∆Env-NanoLuc/SARS-CoV-2 mutant pseudovirus N501Y; assay type: cell-based
[2] = tested on: NL4-3∆Env-NanoLuc/SARS-CoV-2 mutant pseudovirus ∆69–70; assay type: cell-based
[3] = tested on: NL4-3∆Env-NanoLuc/SARS-CoV-2 mutant pseudovirus P681H; assay type: cell-based
[4] = tested on: NL4-3∆Env-NanoLuc/SARS-CoV-2 mutant pseudovirus N501Y/∆69–70; assay type: cell-based
[5] = tested on: NL4-3∆Env-NanoLuc/SARS-CoV-2 mutant pseudovirus N501Y/∆69–70/P681H; assay type: cell-based
[6] = tested on: NL4-3∆Env-NanoLuc/SARS-CoV-2 mutant pseudovirus E484K; assay type: cell-based
[7] = tested on: NL4-3∆Env-NanoLuc/SARS-CoV-2 mutant pseudovirus D614G; assay type: cell-based
[8] = tested on: NL4-3∆Env-NanoLuc/SARS-CoV-2 mutant pseudovirus N501Y/D614G; assay type: cell-based
[9] = tested on: NL4-3∆Env-NanoLuc/SARS-CoV-2 mutant pseudovirus E484K/N501Y; assay type: cell-based
[10] = tested on: NL4-3∆Env-NanoLuc/SARS-CoV-2 mutant pseudovirus E484K/D614G; assay type: cell-based
[11] = tested on: NL4-3∆Env-NanoLuc/SARS-CoV-2 mutant pseudovirus E484K/N501Y/D614G; assay type: cell-based
[12] = tested on: NL4-3∆Env-NanoLuc/SARS-CoV-2 mutant pseudovirus D950N; assay type: cell-based
[13] = tested on: NL4-3∆Env-NanoLuc/SARS-CoV-2 mutant pseudovirus D614G/P681R; assay type: cell-based
[14] = tested on: NL4-3∆Env-NanoLuc/SARS-CoV-2 mutant pseudovirus D614G/D950N; assay type: cell-based
[15] = tested on: NL4-3∆Env-NanoLuc/SARS-CoV-2 mutant pseudovirus D614G/P681R/D950N; assay type: cell-based
[16] = target: SARS-CoV-2 spike (active trimer) His-tag (Severe acute respiratory syndrome coronavirus 2, UniProt P0DTC2, K986P/R682S/R685S/V987P); assay type: binding

Structure (SMILES)	IC50 [1]	IC50 [2]	IC50 [3]	IC50 [4]	IC50 [5]	IC50 [6]	IC50 [7]	IC50 [8]	IC50 [9]	IC50 [10]	IC50 [11]	IC50 [12]	IC50 [13]	IC50 [14]	IC50 [15]	ka [16]	kd [16]
O=C(O)c1cc(-c2ccc(/C=C3\SC(=S)N(CCc4ccccc4)C3=O)o2)ccc1Cl [NBCoV1]	52.5 ± 0.2 nM	48 ± 3 nM	35 ± 0.5 nM	46 ± 0.5 nM	57 ± 0.5 nM	42 ± 0.7 nM	56 ± 0.6 nM	57 ± 2 nM	32 ± 0.5 nM	33 ± 0.5 nM	45 ± 2 nM	47.7 ± 15 nM	49 ± 13 nM	33 ± 10 nM	58 ± 7 nM	1040 M⁻¹ s⁻¹	0.00162 s⁻¹
O=C(O)c1cccc(-c2ccc(/C=C3\SC(=S)N(CCc4ccccc4)C3=O)o2)c1 [NBCoV2]	49 ± 0.5 nM	55 ± 0.5 nM	51 ± 0.3 nM	66 ± 1 nM	79 ± 14 nM	45 ± 0.2 nM	61 ± 0.3 nM	59 ± 13 nM	36 ± 0.4 nM	35 ± 0.2 nM	43 ± 0.5 nM	88.7 ± 6 nM	65 ± 18 nM	26 ± 2 nM	53 ± 12 nM	872 M⁻¹ s⁻¹	0.00468 s⁻¹
O=C(O)c1cc(-c2ccc(/C=C3\SC(=S)N(CCc4ccccc4)C3=O)o2)ccc1F [NBCoV3]	44.5 ± 0.5 nM	69 ± 7 nM	55 ± 0.3 nM	94 ± 16 nM	232 ± 17 nM	80 ± 10.6 nM	145 ± 28 nM	104 ± 1 nM	42 ± 1 nM	44 ± 0.8 nM	101 ± 2 nM						
Cc1ccc(-c2ccc(/C=C3\SC(=S)N(CCc4ccccc4)C3=O)o2)cc1C(=O)O [NBCoV4]	51 ± 0.4 nM	53 ± 0.5 nM	44 ± 0.4 nM	53 ± 11 nM	158 ± 31 nM	45 ± 0.4 nM	58 ± 0.4 nM	77 ± 29 nM	51 ± 5 nM	44 ± 3 nM	43 ± 2.5 nM	207 ± 29 nM	148 ± 30 nM	77.5 ± 16.5 nM	239 ± 7 nM		
Cc1c(C(=O)O)cccc1-c1ccc(/C=C2\SC(=S)N(CCc3ccccc3)C2=O)o1 [NBCoV5]	> 2000 nM	> 2000 nM	1720 ± 215 nM	> 2000 nM	> 2000 nM	> 2000 nM	1730 ± 62.5 nM	> 2000 nM	> 2000 nM	1850 ± 124 nM	> 2000 nM	> 2000 nM	> 2000 nM	> 2000 nM	> 2000 nM		
